Data published in patent publication US11684610B2, “Pharmaceutical composition including 1,2-naphthoquinone derivative compound for prevention or treatment of solid cancers or blood cancers” (YUNGJIN PHARM. CO., LTD., priority 2018, dated 2023).
pIC50: −log10 of the molar value.

How the values were obtained:
KG1α cells [1] = assay: Cell viability in KG1α cells, WST assay; type: cell-based, human; conditions: 0.1 to 3 μM
From the text: (§1) The constructed cell lines were also diverse. Thus, in order to confirm the applicability to a wide range of therapeutic agents that are not therapeutic agents for specific types of acute leukemia, in the present invention, KG1α cells constructed by selecting only cells having a stem cell phenotype from KG1 cells, which are cell lines obtained from a person with acute myelogenous leukemia, were used. HL60 cells, which are cell lines obtained from a person with acute promyelocytic leukemia, and U937 cells, which are cell lines obtained from a person with histiocytic lymphoma, were used.
(§2) KG1α and HL60 cells were cultured in IMDM medium containing 20% FBS (fetal bovine serum), and U937 cells were cultured in RPMI 1640 medium containing 10% FBS. All cells were cultured in an incubator under conditions of 37° C. and 5% CO2, and subcultured once every 2 or 3 days and used in the experiment.
KG1α cells are cells resistant to idarubicin and cytarabine, which are the therapeutic agents for acute myeloid leukemia, and are refractory AML cells. KG1α cells cultured in Example 2-1 were cultured into a 96-well plate at 1×10^5 cells/well, and then cultured in an incubator at 37° C. and 5% CO2 for 16 hours or more for the stabilization of cells. […] At this time, DMSO was used as a control group. After 24 hours, each cell was treated with 10 μl of WST solution, reacted for 2 hours, and then absorbance was measured at 450 nm with a multi-scan machine, and the cell viability of KG1α cells was confirmed as shown in Table 4 below.

HL60 cells [2] = assay: Cell viability of HL60 cells, WST-1; type: cell-based, human; conditions: 24 hours, WST-1, FIG. 1A
From the text: as §1, §2
(§3) The HL60 cells or U937 cells cultured in Example 2-1 were inoculated into a 96-well plate at 1×10^5 cells/well, and then for the stabilization of cells, the cells were cultured in an incubator at 37° C. and 5% CO2 for 16 hours or more. Subsequently, the compound 1 synthesized in Example 1 was treated at concentrations of 0.1, 0.5 and 1 μM, respectively, and reacted for 24 hours. […] The absorbance was then measured at 450 nm with a multi-scan machine.

U937 cells = assay: Cell viability of U937 cells, WST-1; type: cell-based, human; conditions: 24 hours, WST-1, FIG. 1B
From the text: as §1, §2, §3

KG1α cells [3] = assay: Apoptosis or cell necrosis in KG1α cells, FACS (Annexin-V/PI) and western blot; type: cell-based, human; conditions: 0-2 μM, 24 hours, FIG. 2
Experimental: (§4) Cell death was typically known as apoptosis or cell necrosis. Thus, in order to confirm whether the death of acute leukemia cells induced by the compound 1 of the present invention was due to apoptosis or cell necrosis, fluorescence activated cell sorting (FACS) and western blot were performed.
(§5) First, in order to conduct FACS, KG1α cells or HL60 cells cultured in […] were inoculated in a 6-well plate at 1×10^7 cells/well, and for the stabilization of cells, the cells were cultured in an incubator at 37° C. and 5% CO2 for 16 hours or more. Subsequently, the compound 1 was treated at concentrations of 0, 0.1, 0.5, 1 and 2 μM, respectively, and cultured for 24 hours, and then the cells were recovered and washed with cold PBS. Only 1×10^6 cells were taken and resuspended with PBS, and then stained with Annexin-V (green fluorescence), which increases during apoptosis, and Pi (propidium iodide, red fluorescence), which […]. The degree of the two indicators were quantified by FACS, the FACS results for KG1α cells are shown in FIG. 2A, and the FACS results for HL60 cells are shown in FIG. 3A.
(§6) Next, in order to perform western blot, KG1α cells or HL60 cells cultured in Example 2-1 were inoculated into a 6-well plate at 1×10^7 cells/well. In order to stabilize the cells, the cells were cultured for 16 hours or more in an incubator at 37° C. and 5% CO2. […]

HL60 cells [4] = assay: Apoptosis or cell necrosis in HL60 cells, FACS (Annexin-V/PI) and western blot; type: cell-based, human; conditions: 0-2 μM, 24 hours, FIG. 3
Experimental: as §4, §5, §6

[5] = tested on: acute myelogenous leukemia mouse model in which FLT3-ITD was overexpressed; assay: Changes in monocyte cells in acute leukemia mouse model overexpressing FLT3-ITD; type: in vivo; conditions: 120 mg/kg in diet, 8 weeks, FACS, FIG. 4
Experimental: In order to confirm the change in the expression of the FLT3-ITD gene by Compound 1 of the present invention, peripheral blood and spleen were collected after 8 weeks from the animals of an experimental group in which Compound 1 of the present invention was mixed and administered in a diet at a concentration of 120 mg/kg using a mouse (jackson lab) that systemically overexpressed FLT3-ITD, and a control group to which only a solvent was administered (untreated group).
In the case of peripheral blood, cold 1×PBS was added to a small amount of blood, centrifuged, washed, to which RBC lysis buffer was added and reacted for 5 minutes at room temperature to remove red blood cells. […] The antibodies were reacted on ice at a ratio of 1:200 for 20 minutes, washed with 1×PBS, then resuspended with 1×PBS containing 1% FBS, and quantified by FACS, and shown in FIG. 4A.
In the case of the spleen, the cells were crushed on a mesh having a 40 μm hole, separated into single cells, and then washed with cold 1×PBS to which RBC lysis buffer was added and reacted at room temperature for 5 minutes to remove red blood cells. […] The antibodies were reacted on ice at a ratio of 1:200 for 20 minutes, washed with 1×PBS, resuspended in 1×PBS containing 1% FBS, and quantified by FACS, and shown in FIGS. 4B and 4C.

K562 cells = assay: Cell viability in chronic leukemia K562 cells, WST assay; type: cell-based, human; conditions: 0.1 to 5 μM
Experimental: K562 cells obtained from a person with chronic myeloid leukemia were cultured in an incubator under conditions of 37° C. and 5% CO2 using RPMI medium containing 10% FBS (fetal bovine serum), and subcultured once every two days and used in the experiment.
The K562 cells cultured in Example 4-1 were inoculated into a 96-well plate at 1×10^5 cells/well, and then, for the stabilization of cells, the cells were cultured in an incubator at 37° C. and 5% CO2 for 16 hours or more. Subsequently, among the compounds synthesized in Example 1, the compounds 1, 10, and 72 and 192 were treated at a concentration of 0.1 to 5 μM and then cultured for 4 hours. At this time, DMSO was used as a control group. After 4 hours of incubation, 10 μl of WST solution was added to each cell and then reacted for 2 hours.

BCR-ABL fusion gene = assay: Expression level of BCR-ABL fusion gene in K562 cells, western blot; type: cell-based, human; conditions: 0.5-2.5 μM, 6 hours, FIG. 5
Experimental: The BCR-ABL fusion gene, existing only in chronic myelogenous leukemia, generated and transmitted continuous cell growth signals to induce the growth of cancer cells. Thus, after chronic myeloid leukemia cells were treated with the compound of the present invention, western blot was used to confirm whether the expression level of the BCR-ABL fusion gene was reduced.
First, the K562 cells cultured in Example 4-1 were inoculated into a 60 mm plate at 5×10^6 cells/well, and then for the stabilization of cells, the cells were cultured in an incubator at 37° C. and 5% CO2 for 16 hours or more. The, the compound 1 was treated at concentrations of 0.5, 1, 1.5, 2 and 2.5 μM, respectively, and cultured for 6 hours, and then the cells were recovered. A protein extraction buffer (RIPA buffer) was added to the cells obtained in the above process, and reacted on ice for 30 minutes to break the cell membrane, which was centrifuged to remove a supernatant, and then the protein was extracted. The extracted protein was developed by electrophoresis using SDS-PAGE, and then transferred to the PVDF membrane. Then, the antibody related to the BCR-ABL fusion gene was reacted, and then the amount of the protein was confirmed using the ECL buffer, and Western blot results for the K562 cell line are shown in FIG. 5.

A549 (lung carcinoma) = assay: Cell viability in solid cancer cells, WST assay, A549; type: cell-based, human; conditions: A549, 1 to 30 μM, 6 hours
From the text: (§7) To confirm the possibility of use as a therapeutic agent for solid cancer, A549 cell line obtained from a […] with lung carcinoma, Hela cell line obtained from a person with cervix adenocarcinoma, HepG2 cell line obtained from a child with hepatocellular carcinoma, MCF7 cell line obtained from a person with breast adenocarcinoma, and Beas-2B cell line obtained from a normal lung for comparison with solid cancer cell line were used.
(§8) The A549 (lung carcinoma), Hela (cervix adenocarcinoma), HepG2 (hepatocellular carcinoma), MCF7 (breast carcinoma), and Beas-2B (normal lung) cell lines were used in DMEM medium containing 10% FBS, subcultured once every 2 days in an incubator under conditions of 37° C. and 5% CO2 and used in the experiment.
(§9) A549 (lung carcinoma), Hela (cervix adenocarcinoma), HepG2 (hepatocellular carcinoma), MCF7 (breast carcinoma), and Beas-2B (normal lung) cells cultured in Example 6-1 were inoculated into a 96-well plated at 1×10^4 cells/well, and then for the stabilization of cells, the cells were cultured in an incubator at 37° C. and 5% CO2 for 16 hours or more. Subsequently, among the compounds synthesized in Example 1, the compounds 1, 10 and 72 were treated at a concentration of 1 to 30 μM, and then cultured for 6 hours. At this time, DMSO and β-lapachone were used as the control group. After 4 hours of incubation, 10 μl of WST solution was added to each cell, the reaction was carried out for 2 hours, and the absorbance was measured at 450 nm with a multi-scan machine. The cell viabilities of A549 (lung carcinoma), Hela (cervix adenocarcinoma), HepG2 (hepatocellular carcinoma) and MCF7 (breast carcinoma) cells are shown in Table 4 and FIG. 6 below.

[6] = tested on: Hela (cervix adenocarcinoma); assay: Cell viability in solid cancer cells, WST assay, Hela; type: cell-based, human; conditions: 1 to 30 μM, 6 hours
From the text: as §7, §8, §9

[7] = tested on: HepG2 (hepatocellular carcinoma); assay: Cell viability in solid cancer cells, WST assay, HepG2; type: cell-based, human; conditions: HepG2, 1 to 30 μM, 6 hours
From the text: as §7, §8, §9

MCF7 (breast carcinoma) = assay: Cell viability in solid cancer cells, WST assay, MCF7; type: cell-based, human; conditions: MCF7, 1 to 30 μM, 6 hours
From the text: as §7, §8, §9

C57BL/6 mice = assay: Acute toxicity experiment, mortality in mice; type: in vivo; conditions: 120 mg/kg orally, 24 hours after administration
Experimental: This experiment was conducted to examine the acute toxicity to the animal body acutely (within 24 hours) when the compound 1 of the present invention was ingested in excess in a short period of time, and to determine the mortality rate. 20 C57BL/6 mice, which are common mice, were prepared, and ten mice were assigned to each group. Only 0.1% SLS (sodium lauryl sulfate) was administered to the control group, and the compound 1 was orally administered to the experimental group at a concentration of 120 mg/kg, respectively. As a result of examining each mortality rate 24 hours after administration, both the control group and the experimental group to which the compound 1 was administered survived.

[8] = tested on: A549, Hela, HepG2, MCF7 and Beas-2B cells; assay: Cell viability WST assay, all solid cancer and normal lung lines taken together; type: cell-based, human; conditions: 6 hours
From the text: as §7, §8, §9

## CC(C)c1nc2c([nH]1)C(=O)C(=O)c1ccccc1-2 [compound 1]
KG1α cells [1]; 24 hours
  pIC50: 6.30
KG1α cells [1]; Homo sapiens, KG-1, 24 h
  pIC50: 6.00 to 6.30
HL60 cells [2]
  cell killing effect (cell viability), HL60 cells: concentration-dependent cell killing effects
U937 cells
  cell killing effect (cell viability), U937 cells: concentration-dependent cell killing effects
KG1α cells [3]
  apoptosis or cell necrosis, KG1α cells: died due to apoptosis
HL60 cells [4]
  apoptosis or cell necrosis, HL60 cells: both apoptosis and cell necrosis occurred
[5]
  suppression of proliferation of monocyte cells in peripheral blood and spleen: excellent effect of suppressing the proliferation of monocyte cells
K562 cells; 4 hours
  pIC50: 5.80
K562 cells; Homo sapiens, K562, 4 h
  pIC50: 5.70 to 6.00
BCR-ABL fusion gene
  expression level of the BCR-ABL fusion gene: decreased in a concentration-dependent manner
  expression of phospho-bcr-abl: also decreased
  expression of phospho-stat5: also decreased
A549 (lung carcinoma); Homo sapiens
  pIC50: 5.29
[6]; Homo sapiens
  pIC50: 5.34
[7]; Homo sapiens
  pIC50: 5.00
MCF7 (breast carcinoma); Homo sapiens
  pIC50: 4.84
C57BL/6 mice
  mortality, acute toxicity: survived
[8]
  killing effect compared with β-lapachone: killing effect similar to β-lapachone

## CC1(C)CCC2=C(O1)c1ccccc1C(=O)C2=O [beta-rapacon, β-lapachone, reference compound]
A549 (lung carcinoma)
  pIC50: 5.30
[6]
  pIC50: 5.32
[7]
  pIC50: 4.91
MCF7 (breast carcinoma)
  pIC50: 4.88

## O=C1C(=O)c2[nH]c(C3CCCO3)nc2-c2ccccc21 (stereo not drawn) [compound 72]
KG1α cells [1]; 24 hours
  pIC50: 6.15
KG1α cells [1]; Homo sapiens, KG-1, 24 h
  pIC50: 6.00 to 6.30
K562 cells; 4 hours
  pIC50: 5.85
K562 cells; Homo sapiens, K562, 4 h
  pIC50: 5.70 to 6.00
A549 (lung carcinoma); Homo sapiens
  pIC50: 5.19
[6]; Homo sapiens
  pIC50: 5.04
[7]; Homo sapiens
  pIC50: 4.90
MCF7 (breast carcinoma); Homo sapiens
  pIC50: 4.90
[8]
  killing effect compared with β-lapachone: killing effect similar to β-lapachone

## CCc1nc2c([nH]1)C(=O)C(=O)c1ccccc1-2 [compound 10]
KG1α cells [1]; 24 hours
  pIC50: 6.30
KG1α cells [1]; Homo sapiens, KG-1, 24 h
  pIC50: 6.00 to 6.30
K562 cells; Homo sapiens, K562, 4 h
  pIC50: 6.05
A549 (lung carcinoma); Homo sapiens
  pIC50: 5.26
[6]; Homo sapiens
  pIC50: 5.11
[7]; Homo sapiens
  pIC50: 4.92
MCF7 (breast carcinoma); Homo sapiens
  pIC50: 4.85
[8]
  killing effect compared with β-lapachone: killing effect similar to β-lapachone
